In brackets after ≈: the same amount, converted by molar mass.
Assays:
Caco-2 cells = assay: MTT assay, survival rate of Caco-2 cells; assay type: cell-based, human; conditions: 4 h
Excerpt: The human colon adenocarcinoma cell line Caco-2 (No. 3111C0001CCC000100, passage 32) was obtained from the Cell Resource Center, Peking Union Medical College (the headquarters of National Infrastructure of Cell Line Resource, NSTI) on May 3rd, 2013. The cell line was checked free of mycoplasma contamination by PCR and culture, its species origin was confirmed with PCR, and its identity was authenticated with STR profiling (FBI, CODIS). All results of the above tests can be viewed on the website (http://cellresource.cn). The cells were cultured in 25 cm^2 flasks in DMEM medium supplemented with 10% (v/v) FBS, 1% (v/v) NEAA, and 1% (v/v) penicillin-streptomycin, in an atmosphere of 5% CO2 at 37°C and constant moisture. The culture medium was replaced every 2 to 3 days, and the cells were split 1:2 or 1:3 as 80% confluence was obtained.
Caco-2 cells at logarithmic growth phase were seeded into 96-well plates and incubated at 37°C in an atmosphere of 5% CO2 and constant moisture in the incubator. After the cells reached confluence, they were cultured in quadruplicate with 100 μL of HBSS solution (negative control) and compound-containing HBSS solution (seven flavonoids or paclitaxel (positive control) at the concentrations of 25, 50, and 100 μmol/L, respectively) for 4 h. Then, HBSS solution was replaced by 100 μL of MTT solution (0.5 mg/mL), and the supernatant was discarded after 4 h of incubation at 37°C. The cells were shaken with 150 μL of DMSO for 10 min, and the absorbance was read on the microplate reader at 570 nm. The survival rate %=A¯/A0¯×100 , wherein A¯ was the average absorbance value of treatment or positive control group, and A0¯ was the average absorbance value of negative control group.

[1] = Transport experiment across Caco-2 cell monolayer (Papp); assay type: in vitro ADME, human; conditions: human
Experimental: (§1) For cells differentiation to form a confluent monolayer, Caco-2 cells were seeded into the inserts of the 12-well Transwell plates at the density of 1.0×10^5 cells/cm^2. The culture medium was replaced on every other day in the first week, and then at daily intervals for the apical (AP) side and 2 days intervals for the basal (BL) side until the transport experiment was performed 21 days after seeding. The AP and BL sides contained 0.5 and 1.5 mL of culture medium, respectively. […] The cell inserts were considered as qualified only if the resistance reached above 600 Ω cm^2.
(§2) On day 21, the transport experiment was initiated by removal of the culture medium from AP and BL sides. The Caco-2 monolayers were rinsed twice with pre-warmed Hanks balanced salt solution (HBSS) and were incubated with the same solution at 37°C for 30 min. The seven individual test compounds and an equimolar mixture of them were pre-dissolved in DMSO, and then diluted to 25, 50, and 100 μmol/L with an appropriate volume of HBSS to allow the final concentration of DMSO to be less than 1%. The test compounds were added to the AP (0.5 mL) or BL side (1.5 mL), while the receiving chamber contained the corresponding volume of HBSS. Incubation was performed at 37°C for 180 min, with shaking at 50 rpm. At 30, 60, 90, 120, 150, and 180 min, each 0.2 mL of the solution from BL or AP side was collected, and replaced with an equal volume of HBSS. The samples were frozen immediately and stored below-20°C before analysis.
(§3) The apparent permeability coefficients (Papp) were determined in this study by HPLC quantification of the compounds in the receiver chamber after transport across the Caco-2 monolayer. The calculation was carried out in accordance with the formula Papp = (dQ/dt)×(1/A)×(1/C0), wherein dQ/dt was the rate of appearance of the test compound in the receiver compartment (μmol/s); C0 was the initial concentration of test compound in the donor compartment (μmol/mL); and A was the surface area of the Caco-2 monolayer (cm^2). The percentage transported (%) was calculated using the formula % transported = QB/(CS×VD)×100, wherein QB was the quantity of compound in the receiver compartment (μmol); CS was the concentration of test compound in the donor compartment (μmol/mL); VD was the liquid volume of the donor compartment (mL). The transport rate (μmol/h/cm^2) was calculated using the formula transport rate = QB/(t×A), wherein QB was the quantity of compound in the receiver compartment (μmol); t was the incubation time (h); A was the surface area of the Caco-2 monolayer (cm^2).

Caco-2 cell monolayer = assay: as above; assay type: in vitro ADME, human; conditions: for Absorption mechanism: from P ratio, time course and concentration course; for P ratio Papp AP→BL/Papp BL→AP: 50 μmol/L, 90 min
Experimental: as §1, §2, §3

[2] = Stability of sample solutions at room temperature by HPLC; assay type: physicochemical; conditions: sample solution at room temperature, HPLC at 0, 1, 2, 4, 6, 12 and 24 h
Experimental: The intra-day precision was determined by investigating the analytes in sextuplicates during a single day, and the inter-day precision was determined by conducting the intra-day experiment on two consecutive days. […] Each one sample solution of the seven flavonoids was kept at room temperature, and then their stabilities were determined by injecting them into apparatus at 0, 1, 2, 4, 6, 12, and 24 h.

P-glycoprotein (P-gp) = target: T1, P-glycoprotein (P-gp) (Homo sapiens, UniProt P08183); assay: Transporter inhibition experiment with verapamil hydrochloride (P-gp) in Caco-2 monolayer; assay type: in vitro ADME; conditions: 50 μmol/L compound, 100 μmol/L verapamil hydrochloride, AP to BL; for Effect of verapamil hydrochloride on the transport: 180 min
T1 construct: endogenous in cells; host or cells: Caco-2 cells
Experimental: On day 21, transport study was initiated by carefully removing the culture medium from both AP and BL sides. The Caco-2 monolayers were rinsed twice with pre-warmed HBSS and were incubated with the same solution at 37°C for 30 min. […] The final concentration of DMSO in these solutions was less than 1%. […] Incubation was performed at 37°C for 180 min, with shaking at 50 rpm. […] The samples were frozen immediately and stored below-20°C before analysis.

[3] = system: parainfluenza virus type 3 (Para 3); design: method as in PMID 11849843; conditions: cited from earlier work
Staphylococcus aureus = system: Staphylococcus aureus; design: method as in earlier work; conditions: cited from earlier work
S. epidermidis = system: S. epidermidis; design: method as in earlier work; conditions: cited from earlier work
murine ear edema model = conditions: cited from earlier work
[4] = Caco-2, in the equimolar mixture of the seven flavonoids
[5] = in the equimolar mixture of the seven flavonoids

T1 sequence (P08183 whole entry): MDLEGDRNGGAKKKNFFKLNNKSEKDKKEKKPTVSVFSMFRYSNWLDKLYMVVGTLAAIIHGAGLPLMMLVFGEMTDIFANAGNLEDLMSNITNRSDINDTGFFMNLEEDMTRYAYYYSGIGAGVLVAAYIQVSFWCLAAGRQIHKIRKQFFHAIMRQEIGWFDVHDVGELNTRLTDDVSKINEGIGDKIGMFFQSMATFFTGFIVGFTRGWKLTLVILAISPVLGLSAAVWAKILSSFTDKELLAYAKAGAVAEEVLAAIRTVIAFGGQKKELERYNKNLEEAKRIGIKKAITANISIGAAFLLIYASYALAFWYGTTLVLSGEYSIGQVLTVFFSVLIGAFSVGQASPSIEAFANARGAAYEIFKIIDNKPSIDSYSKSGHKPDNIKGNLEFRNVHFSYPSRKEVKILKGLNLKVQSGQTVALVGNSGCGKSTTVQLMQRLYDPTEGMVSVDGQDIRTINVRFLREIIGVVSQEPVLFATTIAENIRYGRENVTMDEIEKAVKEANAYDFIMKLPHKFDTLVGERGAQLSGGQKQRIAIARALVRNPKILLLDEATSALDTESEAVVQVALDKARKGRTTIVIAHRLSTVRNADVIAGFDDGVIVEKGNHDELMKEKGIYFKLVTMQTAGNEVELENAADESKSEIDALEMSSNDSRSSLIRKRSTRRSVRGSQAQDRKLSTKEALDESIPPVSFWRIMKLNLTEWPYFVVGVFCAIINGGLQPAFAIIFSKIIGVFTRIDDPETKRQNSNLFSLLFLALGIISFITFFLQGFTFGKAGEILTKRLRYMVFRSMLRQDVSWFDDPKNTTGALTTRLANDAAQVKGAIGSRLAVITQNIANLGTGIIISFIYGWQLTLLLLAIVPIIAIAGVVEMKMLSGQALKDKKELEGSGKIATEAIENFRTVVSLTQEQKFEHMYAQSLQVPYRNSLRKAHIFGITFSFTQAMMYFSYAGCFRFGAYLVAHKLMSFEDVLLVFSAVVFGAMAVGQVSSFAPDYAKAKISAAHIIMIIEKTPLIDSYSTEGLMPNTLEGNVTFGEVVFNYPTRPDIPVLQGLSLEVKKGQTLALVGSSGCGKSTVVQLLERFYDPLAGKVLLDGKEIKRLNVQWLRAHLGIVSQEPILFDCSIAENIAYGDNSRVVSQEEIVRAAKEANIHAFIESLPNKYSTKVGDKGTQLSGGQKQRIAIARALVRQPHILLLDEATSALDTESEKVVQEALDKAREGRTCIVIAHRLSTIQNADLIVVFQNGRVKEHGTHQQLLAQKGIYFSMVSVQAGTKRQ

| SMILES | Survival rates (%) (Caco-2 cells; 25 μmol/L) | Survival rates (%) (Caco-2 cells; 50 μmol/L) | Survival rates (%) (Caco-2 cells; 100 μmol/L) | Papp A→B at 90 min, 50 μmol/L [1, 4] [×10⁻⁶ cm/s] | Papp B→A at 90 min, 50 μmol/L [1, 4] [×10⁻⁶ cm/s] | Papp A→B at 90 min, 50 μmol/L ([1]; Caco-2, individual compound) [×10⁻⁶ cm/s] | Papp B→A at 90 min, 50 μmol/L ([1]; Caco-2, individual compound) [×10⁻⁶ cm/s] | Absorption mechanism (Caco-2 cell monolayer) | P ratio Papp AP→BL/Papp BL→AP (Caco-2 cell monolayer; [5]) | P ratio Papp AP→BL/Papp BL→AP (Caco-2 cell monolayer; individual compound) | RSD% values for 24-hour stability [2] [%] | also measured |
| --- | --- | --- | --- | --- | --- | --- | --- | --- | --- | --- | --- | --- |
| COc1cc(O)c2c(=O)cc(-c3ccc(O)c(O)c3)oc2c1[C@@H]1O[C@H](CO)[C@@H](O)[C@H](O)[C@H]1O [Isoswertiajaponin, 2-(3,4-dihydroxyphenyl)-5-hydroxy-7-methoxy-8-((2S,3R,4R,5S,6R)-3,4,5-trihydroxy-6-(hydroxymethyl)tetrahydro-2H-pyran-2-yl)-4H-chromen-4-one] | 116.7±8.9 | 124.6±5.4 | 109.1±12.6 | 1.44 ± 0.47 | 0.54 ± 0.31 | 0.98 ± 0.03 | 1.19 ± 0.07 | passive diffusion without participation of transporter | 2.66 | 0.83 | 2.95 | P ratio Papp AP→BL/Papp BL→AP (Caco-2 cell monolayer; individual compound, listed as isoswertiajaponin): ~1 |
| CC(=O)O[C@H]1C(=O)[C@@]2(C)[C@H]([C@H](OC(=O)c3ccccc3)[C@]3(O)C[C@H](OC(=O)[C@H](O)[C@@H](NC(=O)c4ccccc4)c4ccccc4)C(C)=C1C3(C)C)[C@]1(OC(C)=O)CO[C@@H]1C[C@@H]2O [Paclitaxel, reference compound] | 67.3±8.2 | 45.5±6.7 | 37.4±3.5 | – | – | – | – | – | – | – | – | Survival rates (%) (Caco-2 cells; 25 μmol/L, listed as paclitaxel): 67.3%; Survival rates (%) (Caco-2 cells; 50 μmol/L, listed as paclitaxel): 45.5%; Survival rates (%) (Caco-2 cells; 100 μmol/L, listed as paclitaxel): 37.4% |
| O=c1cc(-c2ccc(O)c(O)c2)oc2c([C@@H]3O[C@H](CO)[C@@H](O)[C@H](O)[C@H]3O)c(O)cc(O)c12 [Orientin, 2-(3,4-dihydroxyphenyl)-5,7-dihydroxy-8-((2S,3R,4R,5S,6R)-3,4,5-trihydroxy-6-(hydroxymethyl)tetrahydro-2H-pyran-2-yl)-4H-chromen-4-one] | 100.4±1.3 | 114.3±7.5 | 111.5±2.4 | 1.14 ± 0.27 | 0.88 ± 0.31 | 0.75 ± 0.05 | 1.14 ± 0.08 | transporter mediated efflux in addition to passive diffusion | 1.29 | 0.66 | 2.35 | Substrate of P-gp (P-glycoprotein (P-gp)): substrates of P-gp; Effect of verapamil hydrochloride on the transport (P-glycoprotein (P-gp)): increased; IC50 against parainfluenza virus type 3 [3]: 11.7 µg/mL (≈ 26.1 µM); MIC toward S. aureus (Staphylococcus aureus): 25 µg/mL (≈ 55.8 µM); MIC toward S. epidermidis (S. epidermidis): 25 µg/mL (≈ 55.8 µM); Anti-inflammatory effect against murine ear edema (murine ear edema model): possess anti-inflammatory effects |
| CC(C)NCC(O)COc1cccc2ccccc12 (centres unmarked) [propranolol, reference compound] | – | – | – | – | – | – | – | – | – | – | – | Papp ([1]; Caco-2, standard compounds, validation of the monolayer model): 14.4 ×10⁻⁶ cm/s |
| O=c1cc(-c2ccc(O)cc2)oc2c([C@@H]3O[C@H](CO)[C@@H](O)[C@H](O)[C@H]3O[C@@H]3O[C@H](CO)[C@H](O)[C@H](O)[C@H]3O)c(O)cc(O)c12 [2”-O-β-L-galactopyranosylvitexin, 8-((2S,3R,4S,5S,6R)-4,5-dihydroxy-6-(hydroxymethyl)-3-(((2S,3R,4S,5R,6R)-3,4,5-trihydroxy-6-(hydroxymethyl)tetrahydro-2H-pyran-2-yl)oxy)tetrahydro-2H-pyran-2-yl)-5,7-dihydroxy-2-(4-hydroxyphenyl)-4H-chromen-4-one] | – | – | – | 1.92 ± 0.42 | 0.81 ± 0.27 | 1.85 ± 0.02 | 4.68 ± 0.02 | transporter mediated efflux in addition to passive diffusion | – | – | 2.65 | – |
| O=c1cc(-c2ccc(O)cc2)oc2c([C@@H]3O[C@H](CO)[C@@H](O)[C@H](O)[C@H]3O)c(O)cc(O)c12 [Vitexin, 5,7-dihydroxy-2-(4-hydroxyphenyl)-8-((2S,3R,4R,5S,6R)-3,4,5-trihydroxy-6-(hydroxymethyl)tetrahydro-2H-pyran-2-yl)-4H-chromen-4-one] | 104.5±10.5 | 101.3±2.3 | 98.2±8.9 | 1.6 ± 0.18 | 1.03 ± 0.28 | 2.26 ± 0.37 | 3.38 ± 0.54 | transporter mediated efflux in addition to passive diffusion | 1.55 | 0.67 | 2.42 | Substrate of P-gp (P-glycoprotein (P-gp)): substrates of P-gp; Effect of verapamil hydrochloride on the transport (P-glycoprotein (P-gp)): increased; IC50 against parainfluenza virus type 3 [3]: 20.8 µg/mL (≈ 48.1 µM); MIC toward S. aureus (Staphylococcus aureus): 100 µg/mL (≈ 231 µM); MIC toward S. epidermidis (S. epidermidis): 25 µg/mL (≈ 57.8 µM); Anti-inflammatory effect against murine ear edema (murine ear edema model): possess anti-inflammatory effects |
| COc1cc(O)c2c(=O)cc(-c3ccc(O)cc3)oc2c1[C@@H]1O[C@H](CO)[C@@H](O)[C@H](O)[C@H]1O [Isoswertisin, 5-hydroxy-2-(4-hydroxyphenyl)-7-methoxy-8-((2S,3R,4R,5S,6R)-3,4,5-trihydroxy-6-(hydroxymethyl)tetrahydro-2H-pyran-2-yl)-4H-chromen-4-one] | 110.8±9.9 | 115.3±5.5 | 116.0±8.6 | 2.69 ± 0.37 | 1.59 ± 0.2 | 1.07 ± 0.08 | 0.94 ± 0.18 | passive diffusion without participation of transporter | 1.69 | 1.14 | 2.82 | P ratio Papp AP→BL/Papp BL→AP (Caco-2 cell monolayer; individual compound, listed as isoswertisin): ~1 |
